In publication PMC9481570, “A small molecule antagonist of SMN disrupts the interaction between SMN and RNAP II” (Nature Communications, 2022):
Values joined by “and” are separate entries in the source; they are usually repeats but may differ in a detail not shown here. Equal values may be shown once.

How the values were obtained:
[1] = biological target: T1, UHRF1 tandem Tudor domain (TTD) (Homo sapiens, UniProt Q96T88); experiment: ITC binding to tandem Tudor domain of UHRF1
T1 construct: UHRF1 (aa 126–285); His (N, cleaved yes); made in house; host or cells: E. coli BL21 (DE3) Codon plus RIL
T1 sequence (Q96T88 126-285): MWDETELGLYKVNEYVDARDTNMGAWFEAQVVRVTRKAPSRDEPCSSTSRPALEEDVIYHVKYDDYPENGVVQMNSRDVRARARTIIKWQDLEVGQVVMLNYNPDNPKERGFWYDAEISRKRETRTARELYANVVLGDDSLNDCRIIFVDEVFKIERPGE
Text: The coding DNA fragments of following Tudor domains were cloned into pET28-MHL vector: SMN (aa 82–147), UHRF1 (aa 126–285), SMNDC1 (aa 53–130), TDRD3 (aa 554–611), SND1 (aa 650–910), TDRD2 (aa 327–420), FXR1 (aa 2–132), PHF1 (aa 28–87), SGF29 (aa 115–293), JMJD2A (aa 897–1101), 53BP1 (aa 1483–1606), SETDB1 (aa 190–410), LBR (aa 1–67), ZGPAT (aa 120–271). The coding regions of chromodomain of CBX7 (aa 8–62), PWWP domain of DNMT3A (aa 275–417), WD40 repeats of WDR5 (aa 24–334) and CW domain of ZCWPW2 (aa 21–78) were also subcloned into pET28-MHL vector to generate N-terminally His-tagged fusion protein. The MBT repeats of L3MBTL1 (aa 200–522) and L3MBTL2 (aa 170–625) were subcloned into pET28GST-LIC vector to generate N-terminally GST-His-tagged fusion protein. All the plasmids were generated by ligase independent cloning (Vazyme Biotech, C112 or ABclonal Technology, RK21020). […] The proteins were further purified by Superdex75 or Superdex200 gel-filtration column (GE Healthcare) in a buffer containing 20 mM Tris-HCl, pH 7.5, 150 mM NaCl and 1 mM DTT. For crystallization experiments, purified proteins were concentrated to 18 mg/mL for SMN, 23 mg/mL for UHRF1 and 10 mg/mL for TDRD3 in the gel-filtration buffer. All the mutations were introduced with the QuikChange II XL site-directed mutagenesis kit (Stratagene, 200522) and confirmed by DNA sequencing. Mutant proteins were also expressed in E. coli BL21 (DE3) Codon plus RIL and purified using the same procedures described above. The molecular weight of all protein samples was measured by mass spectrometry.
For the ITC measurement, the concentrated proteins were diluted into 20 mM Tris-HCl, pH 7.5, 150 mM NaCl (ITC buffer); the lyophilized compounds were dissolved in the same buffer, and the pH value was adjusted by adding 2 M NaOH or 2 M HCl. The compounds that could not be dissolved in the ITC buffer were dissolved in DMSO with the accessible highest concentration. Compound concentrations were calculated from the mass and the volume of the solvent. For the ITC assay with compound dissolved in DMSO, the protein was diluted by ITC buffer containing same final concentration of DMSO. All measurements were performed in duplicate at 25 °C, using a VP-ITC (MicroCal, Inc.), an iTC-200 (MicroCal, Inc.), or a Nano-ITC (TA, Inc.) microcalorimeter. The protein with a concentration of 50–100 μM was placed in the cell chamber, and the compounds with a concentration of 0.5–2 mM in syringe was injected in 25, 20, or 20 successive injections with a spacing of 180, 150, or 120 s for VP-ITC, iTC-200, or Nano-ITC, respectively, as previously described[30]–[32]. iTC-200 or Nano-ITC data were consistent with those from the VP-ITC instrument, based on ITC results of SMN-compound 1 detected by using all the instruments. Control experiments were performed under identical conditions to determine the heat signals that arise from injection of the compounds into the buffer. Data were fitted using the single-site binding model within the Origin software 7.0 package (MicroCal, Inc.) or the independent model within the Nano-Analyze software package (TA, Inc.).

[2] = test system: SMN occupancy at ACTB gene; experiment: SMN ChIP-qPCR along the ACTB gene; format: cell-based, human; conditions: 72 h; for SMN/RNAPII, ACTB position 332 / SMN/RNAPII, ACTB position 1671 / SMN/RNAPII, ACTB position 2911 / SMN/RNAPII, ACTB position 3752 / SMN/RNAPII, ACTB position 4657 / SMN/RNAPII, ACTB position 5590 / SMN/RNAPII, ACTB position -72: HEK293, 20 μM, ChIP-qPCR, DMSO = 1; for occupancy levels of SMN along the ACTB gene: HEK293 cells, 20 µM
Procedure: (§1) ChIP was performed using the EZ-ChIP™ A - Chromatin Immunoprecipitation Kit (Millipore, 17-371) according to the manufacturer’s instruction. Antibodies were used with a range of 1–2 μg, and IgG (Millipore, polyclonal antibody, 12-370) was used as a background control. After immunoprecipitation, genomic DNA was de-crosslinked in ChIP elution buffer containing 5 M NaCl at 65 °C overnight and purified with the Qiaex II kit (Qiagen, 20021), and eluted in water for PCR amplification. Immunoprecipitated and input DNAs were used as templates for qPCR. The qPCR primer sequences for ACTB gene are the same as described earlier[9] and shown in the Supplementary Table 2. For analysis of SMN chemical antagonists, HEK293 cells were treated with DMSO, compound 1 or compound 2 (a final concentration of 20 μM) for 72 h, before processing for ChIP.

[3] = test system: RNAP II occupancy at ACTB gene; experiment: RNAP II (POLR2A) ChIP-qPCR along the ACTB gene; format: cell-based, human; conditions: 72 h; for POLR2A ChIP-qPCR, ACTB position 332 / POLR2A ChIP-qPCR, ACTB position 1671 / POLR2A ChIP-qPCR, ACTB position 2911 / POLR2A ChIP-qPCR, ACTB position 3560 / POLR2A ChIP-qPCR, ACTB position 3752 / POLR2A ChIP-qPCR, ACTB position 4657 / POLR2A ChIP-qPCR, ACTB position 5590 / POLR2A ChIP-qPCR, ACTB position -72: HEK293, 20 μM; for occupancy levels of RNAP II at the promoter regions and 3′-end of the ACTB gene: HEK293 cells, 20 µM
Procedure: as §1

Row | Kd (UHRF1) [1] | SMILES | SMN/RNAPII, ACTB position 332 [2] | SMN/RNAPII, ACTB position 1671 [2] | SMN/RNAPII, ACTB position 2911 [2] | SMN/RNAPII, ACTB position 3752 [2] | SMN/RNAPII, ACTB position 4657 [2] | SMN/RNAPII, ACTB position 5590 [2] | SMN/RNAPII, ACTB position -72 [2] | occupancy levels of SMN along the ACTB gene [2] | POLR2A ChIP-qPCR, ACTB position 332 [3] | POLR2A ChIP-qPCR, ACTB position 1671 [3] | POLR2A ChIP-qPCR, ACTB position 2911 [3] | POLR2A ChIP-qPCR, ACTB position 3560 [3] | POLR2A ChIP-qPCR, ACTB position 3752 [3] | POLR2A ChIP-qPCR, ACTB position 4657 [3] | POLR2A ChIP-qPCR, ACTB position 5590 [3] | POLR2A ChIP-qPCR, ACTB position -72 [3] | occupancy levels of RNAP II at the promoter regions and 3′-end of the ACTB gene [3] | Kd [1]
1 | No binding | CCCn1c2c(c(=N)c3c1CCC3)CCC2 [Compound 2, 4-propyl-2,3,4,5,6,7-hexahydrodicyclopenta[b,e]pyridin-8(1H)-imine] | 0.5015 | 0.45 | 0.3355 | 0.2279 | 0.35 | 0.2022 | 0.3107 | significantly reduced | 0.1333 | 0.1287 | 0.06481 | 0.09661 | 0.2124 | 0.1677 | 0.1104 | 0.5589 | significantly increased | –
2 | – | Cn1c2c(c(=N)c3c1CCC3)CCC2 [Compound 1, 4-methyl-2,3,4,5,6,7-hexahydrodicyclopenta[b,e]pyridin-8(1H)-imine] | 0.6623 | 0.139 | 0.1085 | 0.1464 | 0.1588 | 0.03323 | 0.2631 | significantly reduced | 0.1628 | 0.1331 | 0.08894 | 0.1246 | 0.2307 | 0.1056 | 0.1381 | 0.4274 | significantly increased | ~16 µM and 16 µM
